Source: US5312900A, “23K protein with binding specificity for queuine” (La Jolla Cancer Research Foundation, priority 1991, dated 1994)
Entries after “also recorded” stand apart in the source; their conditions may differ.

Assays:
[1] = tested on: ^125 I-Queb (23K protein); assay: Binding of ^125 I-Queb to ligand-sepharose; parameters: species or system bovine; settings: for Unbound CPM: 1×10^6 cpm ^125 I-Queb incubated 2 hours with ligand-sepharose, CPM in supernatant and three PBS/Ca++; for Unbound CPM / Bound CPM: Mg++ washes, n = 3; for Bound CPM: CPM associated with sepharose after removal of supernatant and three PBS/Ca++, ± S.D.; for % Bound: share of available ^125 I-Queb bound to ligand-sepharose; for Binding of ^125 I-Queb to ligand-sepharose and its elution (in words): successive elution with 20mM EDTA, 1M NaCl, 1M urea, 8M urea
Protocol: Queb was isolated from the 15% SDS-PA gels by electroelution, and labelled with ^125 I according to Example IV. […] Equal quantities (1×10^6 cpm, 50 μl ) of ^125 I-Queb were incubated for 2 hours with equal aliquots (50 μl ) of ligand-sepharose. The buffer was then isolated and the sepharose was washed with PBS until less than 1×10^4 cpm were measured in the eluent.

Queb = assay: Affinity chromatography of BAF proteins on ligand-sepharose with stepwise elution; assay type: binding, bovine; settings: third trimester BAF; elution with 20 mM EDTA, 1M NaCl, 1M urea, 8M urea
From the text: The isolation of Queuine binding factors was completed using affinity chromatography. CNBr-activated sepharose 4B (Pharmacia) was coupled with Queuine, guanosine or glycine using the manufacturers described procedure. The coupling ratio of Queuine to the amount of dry sepharose was 2.7 μmole to 0.1 g and the ratio of guanosine to sepharose was 1.3 μmole to 0.1 g. The procedure used targeted coupling of Queuine and guanosine at the 2-amino group of the purine ring.
The affinity-sepharose was equilibrated with phosphate buffered saline (PBS) containing 2 mM CaCl2, and MgCl2 contained in a glass pipette. The sample was allowed to flow through the column containing the affinity-sepharose, and the bound material was eluted with a successive series of PBS buffers (pH 7.5) containing: 20 mM EDTA, 1M NaCl, 1M urea, 8M urea. Once eluted, the protein was precipitated with 95% ethanol containing 0.5M potassium acetate, washed twice in 95% ethanol, and then solubilized in SDS-PAGE sample buffer, 0.25M tris-HCl, pH 6.8; 10% glycerol; 2% SDS; 0.0025% bromophenol blue.
Third trimester BAF (50 ml) was passed over a 0.4 ml Queuine-sepharose column. The column was then washed with PBS containing 2mM of CaCl2 and MgCl2 until the eluent contained<0.01 OD (280 nm). […] Eluent fractions (200 μl ) were collected and spectrophotometrically monitored (280 nm). […]

[2] = tested on: HL 60 cells (ATCC No. CCL 240); assay: Cell growth of HL 60 cells; assay type: cell-based
HL-60 cells = assay: Differentiation response of HL-60 cells; assay type: cell-based; settings: TPA-induced differentiation where stated
^125 I-Queb = assay: Effect of TPA on ^125 I-Queb binding to Queuine-sepharose; parameters: species or system bovine; settings: TPA at 50% of the concentration of Queuine bound to sepharose
Protocol: TPA, at 50% of the concentration of the Queuine bound to sepharose, was evaluated for its ability to antagonize ^125 I-Queb binding to Queuine-sepharose. FIG. 3A illustrates the ^125 I-Queb binding without TPA and FIG. 3B illustrates the results with TPA. […] However, the elution patterns of ^125 I-Queb from the Queuine-sepharose was altered in the TPA samples.

In the case of `NCC(=O)O` [Glycine], the “Unbound CPM” value [1] is reported as 802,682 CPM, the “Bound CPM” value [1] is reported as 70,500 ± 8,800 CPM and the “% Bound” value [1] is reported as 8.08%. The “Binding of ^125 I-Queb to ligand-sepharose and its elution (in words)” value (from here on “Binding of ^125 I-Queb”) [1] was “minimal amount”.
`Nc1nc2c(ncn2[C@@H]2O[C@H](CO)[C@@H](O)[C@H]2O)c(=O)[nH]1` [Guanosine] was tested, and the “Unbound CPM” value [1] was 843,385 CPM, the “Bound CPM” value [1] was 104,740 ± 12,885 CPM and the “% Bound” value [1] was 11.05%. For the same compound, the “Binding of ^125 I-Queb” value [1] was “No ^125 I-Queb was found eluted”, the “Binding of ^125 I-Queb” value ([1]; listed as guanine) was “minimal amount” and the “Binding of Queb from BAF to ligand-sepharose column” value (Queb) was “no presence of Queb that bound with high affinity; also recorded: did not bind”.
With `Nc1nc2[nH]cc(CN[C@H]3C=C[C@H](O)[C@@H]3O)c2c(=O)[nH]1` [Queuine] the “Unbound CPM” value [1] was 404,060 CPM, the “Bound CPM” value [1] was 851,350 ± 91,830 CPM and the “Binding of ^125 I-Queb” value [1] was “only eluted by 8M urea”. For the same compound, the “Binding of Queb from BAF to ligand-sepharose column” value (Queb) was “eluted only under stringent elution conditions of 8 M urea; also recorded: high binding affinity”, the “Effect on cell growth (in words)” value [2] was “both stimulate and inhibit” and the IC50 ([2]; Homo sapiens, read-out: ID50, inhibition of cell growth) was 7.8 µM. For the same compound, the “Effect on differentiation response (in words)” value (HL-60 cells) was “modulate the ability of cells to respond to differentiation signals; also recorded: markedly sensitized HL-60 cells to a TPA-induced differentiation response; also recorded: inhibit TPA when used concurrently”.
`CCCCCCCCCCCCCC(=O)O[C@@H]1[C@@H](C)[C@@]2(O)[C@@H](C=C(CO)C[C@]3(O)C(=O)C(C)=C[C@@H]23)[C@@H]2C(C)(C)[C@]12OC(C)=O` [TPA, 12-O-tetradecanoyl-phorbol-13-acetate] was tested, and the “Effect on amount of ^125 I-Queb bound to Queuine-sepharose (in words)” value (^125 I-Queb) was “did not quantitatively alter” and the “Effect on elution of ^125 I-Queb from Queuine-sepharose (in words)” value (^125 I-Queb; without TPA 8 M urea needed) was 20 mM EDTA was able to elute and eluted under milder conditions of 20 mM EDTA.
